According to ChEMBL document CHEMBL2169808, “Discovery of pyrazole carboxylic acids as potent inhibitors of rat long chain L-2-hydroxy acid oxidase” (Bioorg Med Chem Lett, 2012):

Tests used:
2-Hydroxyacid oxidase 2 = target: T1, 2-Hydroxyacid oxidase 2 (Rattus norvegicus, UniProt Q07523); assay: Inhibition of rat Hao2-mediated oxidation of 2-hydroxyoctanoic acid assessed as proportionate release of H2O2
T1 sequence (Q07523 whole entry): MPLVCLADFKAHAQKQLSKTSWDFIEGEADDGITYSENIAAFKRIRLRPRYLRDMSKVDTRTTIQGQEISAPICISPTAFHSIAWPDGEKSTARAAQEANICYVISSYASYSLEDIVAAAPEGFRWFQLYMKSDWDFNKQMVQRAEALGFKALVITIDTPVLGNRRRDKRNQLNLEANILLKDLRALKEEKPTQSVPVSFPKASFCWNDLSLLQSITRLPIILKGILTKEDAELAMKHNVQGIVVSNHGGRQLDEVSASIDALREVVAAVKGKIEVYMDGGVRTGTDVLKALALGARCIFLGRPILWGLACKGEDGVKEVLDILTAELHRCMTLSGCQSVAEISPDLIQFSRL

[1] = target: T2, 2-Hydroxyacid oxidase 2 (Homo sapiens) (UniProt Q9NYQ3); assay: Inhibition of human Hao2-mediated oxidation of 2-hydroxyoctanoic acid assessed as proportionate release of H2O2 at 10 uM
T2 sequence (whole entry): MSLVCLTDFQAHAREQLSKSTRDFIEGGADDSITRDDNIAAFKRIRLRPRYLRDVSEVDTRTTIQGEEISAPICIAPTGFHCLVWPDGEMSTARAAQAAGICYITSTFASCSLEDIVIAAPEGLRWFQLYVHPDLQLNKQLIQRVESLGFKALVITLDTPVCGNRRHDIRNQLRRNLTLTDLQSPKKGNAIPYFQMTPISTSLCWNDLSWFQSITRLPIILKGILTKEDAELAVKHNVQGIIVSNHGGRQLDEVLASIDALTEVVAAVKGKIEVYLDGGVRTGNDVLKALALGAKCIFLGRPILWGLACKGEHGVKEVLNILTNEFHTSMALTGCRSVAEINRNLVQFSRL

[2] = target: T2, 2-Hydroxyacid oxidase 2 (Homo sapiens); assay: Inhibition of human Hao2-mediated oxidation of 2-hydroxyoctanoic acid assessed as proportionate release of H2O2 at 1 uM
[3] = target: T3, 2-Hydroxyacid oxidase 2 (Rattus norvegicus) (UniProt Q07523); assay: Inhibition of rat Hao2-mediated oxidation of 2-hydroxyoctanoic acid assessed as proportionate release of H2O2 at 1 uM
T3 sequence (whole entry): T1 sequence (Q07523 whole entry)

[4] = target: T3, 2-Hydroxyacid oxidase 2 (Rattus norvegicus); assay: Inhibition of rat Hao2-mediated oxidation of 2-hydroxyoctanoic acid assessed as proportionate release of H2O2 at 10 uM
Rattus norvegicus = organism: Rattus norvegicus; assay: Selectivity ratio of IC50 for rat Hao1 to IC50 for rat Hao2

Structure (SMILES)	IC50 (2-Hydroxyacid oxidase 2)	inhibition [1]	inhibition [2]	inhibition [3]	inhibition [4]	Ratio IC50 (Rattus norvegicus)
CCOc1[nH]nc(C(=O)O)c1Cc1cccc(-c2ccc(F)cc2)c1	1200 nM	–	–	–	–	–
Cc1n[nH]c(C(=O)NS(C)(=O)=O)c1Cc1cccc(-c2ccc(F)cc2)c1	–	8%	8%	0%	3%	–
Cc1n[nH]c(C(=O)O)c1Cc1ccc2ccccc2c1	1100 nM	12%	8%	–	–	> 150
Cc1n[nH]c(C(=O)O)c1Cc1ccc(-c2ccc(OC(F)(F)F)cc2)cc1	–	29%	11%	–	–	> 150
Cc1n[nH]c(C(=O)O)c1Cc1ccc(-c2ccc(C(F)(F)F)cc2)cc1	–	14%	5%	–	–	> 150
CCc1n[nH]c(C(=O)O)c1Cc1cccc(-c2ccc(F)cc2)c1	–	36%	5%	–	–	> 150
Cc1n[nH]c(C(=O)O)c1Cc1ccc(OC(F)(F)F)cc1	1300 nM	34%	7%	–	–	> 150
Cc1n[nH]c(C(=O)O)c1Cc1ccc(C(N)=O)cc1	–	8%	0%	–	–	> 150
Cc1n[nH]c(C(=O)O)c1Cc1ccc(-c2ccc(F)cc2)cc1	–	25%	11%	–	–	> 150
Cc1[nH]nc(C(=O)O)c1Cc1cccc(C(N)=O)c1	900 nM	–	–	–	–	–
Cc1[nH]nc(C(=O)O)c1Cc1ccc(-c2ccc(F)cc2)cc1	400 nM	–	–	–	–	–
Cc1n[nH]c(C(=O)O)c1Cc1cccc(C(N)=O)c1	–	8%	8%	–	–	> 150
CC(C)c1n[nH]c(C(=O)O)c1Cc1cccc(-c2ccc(F)cc2)c1	500 nM	11%	2%	–	–	> 150
Cc1n[nH]c(C(=O)O)c1Cc1ccccc1C(F)(F)F	–	38%	13%	–	–	> 150
Cc1n[nH]c(C(=O)O)c1Cc1cccc(C(F)(F)F)c1	–	23%	5%	–	–	> 150
Cc1[nH]nc(C(=O)O)c1Cc1ccc(-c2ccc(OC(F)(F)F)cc2)cc1	2000 nM	–	–	–	–	–
Cc1n[nH]c(C(=O)O)c1Cc1cccc(F)c1	200 nM	13%	1%	–	–	> 150
CCOc1n[nH]c(C(=O)O)c1Cc1cccc(-c2ccc(F)cc2)c1	–	17%	1%	–	–	> 150
Cc1[nH]nc(C(=O)O)c1Cc1cccc(C#N)c1	500 nM	–	–	–	–	–
Cc1n[nH]c(C(=O)O)c1Cc1cccc(-c2cccnc2)c1	–	45%	13%	–	–	> 150
Cc1[nH]nc(C(=O)O)c1Cc1cccc(-c2cccc(F)c2)c1	500 nM	–	–	–	–	–
Cc1n[nH]c(C(=O)O)c1CCc1cccc(-c2ccc(F)cc2)c1	900 nM	45%	9%	–	–	> 150

Structure (SMILES)	IC50 (2-Hydroxyacid oxidase 2)	inhibition [1]	inhibition [2]	inhibition [3]	inhibition [4]	Ratio IC50 (Rattus norvegicus)
Cc1[nH]nc(C(=O)O)c1Cc1cccc(-c2ccc(CC(=O)O)cc2)c1	400 nM	–	–	–	–	–
Cc1[nH]nc(C(=O)O)c1Cc1cccc(C(F)(F)F)c1	300 nM	–	–	–	–	–
Cc1[nH]nc(C(=O)O)c1Cc1ccc(Oc2ccccc2)cc1	500 nM	–	–	–	–	–
Cc1n[nH]c(C(=O)O)c1Cc1cccc(Oc2ccccc2)c1	600 nM	41%	12%	–	–	> 150
Cc1n[nH]c(C(=O)O)c1Cc1cccc(OC(F)(F)F)c1	700 nM	26%	2%	–	–	> 150
Cc1[nH]nc(C(=O)O)c1Cc1ccccc1C(F)(F)F	1300 nM	–	–	–	–	–
Cc1n[nH]c(C(N)=O)c1Cc1cccc(-c2ccc(F)cc2)c1	–	14%	1%	–	–	–
O=C(O)c1[nH]nc(-c2ccccc2)c1Cc1cccc(-c2ccc(F)cc2)c1	1800 nM	14%	1%	–	–	> 150
Cc1[nH]nc(C(=O)O)c1Cc1cccc(-c2ccc(C#N)cc2)c1	300 nM	–	–	–	–	–
Cc1n[nH]c(C(=O)O)c1Cc1cccc2ccccc12	–	59%	22%	–	–	> 150
Cc1[nH]nc(C(=O)O)c1Cc1cccc(-c2cccnc2)c1	400 nM	–	–	–	–	–
O=C(O)c1n[nH]c(CCc2ccccc2)c1Cc1cccc(-c2ccc(F)cc2)c1	800 nM	–	–	–	–	–
Cc1n[nH]c(C(=O)O)c1Cc1cccc(-c2cccc(F)c2)c1	–	50%	20%	–	–	> 150
Cc1[nH]nc(C(=O)O)c1Cc1ccc(C(N)=O)cc1	1100 nM	–	–	–	–	–
Cc1[nH]nc(C(=O)O)c1Cc1cccc(-c2ccc(C(F)(F)F)cc2)c1	400 nM	–	–	–	–	–
Cc1n[nH]c(C(=O)O)c1Cc1cccc(C#N)c1	–	19%	6%	–	–	> 150
Cc1n[nH]c(C(=O)Nc2nnn[nH]2)c1Cc1cccc(-c2ccc(F)cc2)c1	–	0%	0%	0%	9%	–
Cc1n[nH]c(C(=O)O)c1Cc1ccc(Oc2ccccc2)cc1	–	43%	10%	–	–	> 150
Cc1[nH]nc(C(N)=O)c1Cc1cccc(-c2ccc(F)cc2)c1	1400 nM	–	–	–	–	–
Cc1n[nH]c(C(=O)O)c1Cc1cccc(-c2ccc(C(F)(F)F)cc2)c1	–	30%	8%	–	–	> 150
CCc1[nH]nc(C(=O)O)c1Cc1cccc(-c2ccc(F)cc2)c1	300 nM	–	–	–	–	–
Cc1n[nH]c(C(=O)O)c1-c1ccc(F)cc1	–	13%	3%	1%	–	> 150

Structure (SMILES)	IC50 (2-Hydroxyacid oxidase 2)	inhibition [1]	inhibition [2]	inhibition [3]	inhibition [4]	Ratio IC50 (Rattus norvegicus)
Cc1n[nH]c(C(=O)O)c1Cc1cccc(-c2ccc(F)cc2)c1	–	55%	16%	–	–	> 150
CNC(=O)c1[nH]nc(C)c1Cc1cccc(-c2ccc(F)cc2)c1	–	19%	7%	9%	53%	–
Cc1n[nH]c(C(=O)O)c1Cc1cccc(-c2ccccc2F)c1	900 nM	22%	5%	–	–	> 150
O=C(O)c1[nH]nc(Cc2ccccc2)c1Cc1cccc(-c2ccc(F)cc2)c1	–	8%	10%	–	–	> 150
Cc1n[nH]c(C(=O)O)c1Cc1cccc(-c2ccc(C#N)cc2)c1	–	46%	13%	–	–	> 150
Cc1n[nH]c(C(=O)O)c1CCc1ccc(-c2ccc(F)cc2)cc1	900 nM	39%	5%	–	–	> 150
O=C(O)c1n[nH]c(Cc2ccccc2)c1Cc1cccc(-c2ccc(F)cc2)c1	700 nM	–	–	–	–	–
Cc1[nH]nc(C(=O)O)c1Cc1ccc(-c2ccc(C(F)(F)F)cc2)cc1	1100 nM	–	–	–	–	–
Cc1n[nH]c(C(=O)O)c1Cc1ccc2ccccc2n1	1700 nM	18%	2%	–	–	> 150
Cc1n[nH]c(C(=O)O)c1Cc1cccc(-c2ccc(C(N)=O)cc2)c1	200 nM	60%	18%	–	–	> 150
Cc1[nH]nc(C(=O)O)c1Cc1ccc(F)cc1	700 nM	–	–	–	–	–
Cc1n[nH]c(C(=O)O)c1Cc1cc2ccccc2s1	–	29%	8%	–	–	> 150
O=C(O)c1[nH]nc(CCc2ccccc2)c1Cc1cccc(-c2ccc(F)cc2)c1	–	16%	4%	–	–	> 150
Cc1n[nH]c(C(=O)O)c1Cc1cccc(-c2ccc(OC(F)(F)F)cc2)c1	300 nM	34%	6%	–	–	> 150
Cc1n[nH]c(C(=O)O)c1Cc1cccc(-c2ccc(CC(=O)O)cc2)c1	–	21%	2%	–	–	> 150
Cc1n[nH]c(C(=O)O)c1Cc1cccc(-c2ccncc2)c1	300 nM	49%	13%	–	–	> 150
Cc1n[nH]c(C(=O)O)c1Cc1ccc(F)cc1	–	14%	7%	–	–	> 150
Cc1c(Cc2cccc(-c3ccc(F)cc3)c2)c(C(=O)O)nn1C	–	4%	2%	12%	57%	–
Cc1nn(C)c(C(=O)O)c1Cc1cccc(-c2ccc(F)cc2)c1	–	3%	5%	4%	10%	–
Cc1[nH]nc(C(=O)O)c1Cc1cccc2ccccc12	200 nM	–	–	–	–	–
Cc1n[nH]c(C(=O)O)c1Cc1cccc(-c2ccc(C(=O)O)cc2)c1	1100 nM	15%	3%	–	–	> 150
